Results as given in ChEMBL document CHEMBL4819133, “Exploiting the HSP60/10 chaperonin system as a chemotherapeutic target for colorectal cancer” (Bioorg Med Chem, 2021).
pEC50, pIC50: −log10 of the molar value.

Assays:
HCT-116 = test: Cytotoxicity against human HCT-116 cells assessed as reduction in cell viability measured after 48 hrs by AlamarBlue assay; type: functional, cell-based; conditions: HCT-116, 48 h
DLD-1 = test: Cytotoxicity against human DLD-1 cells assessed as reduction in cell viability measured after 48 hrs by AlamarBlue assay; type: functional, cell-based; conditions: DLD-1, 48 h
HT-29 = test: Cytotoxicity against human HT-29 cells assessed as reduction in cell viability measured after 48 hrs by AlamarBlue assay; type: functional, cell-based; conditions: HT-29, 48 h
FHC = test: Cytotoxicity against human FHC cells assessed as reduction in cell viability measured after 48 hrs by AlamarBlue assay; type: cell-based
[1] = Cytotoxicity against human FHs74Int cells assessed as reduction in cell viability measured after 48 hrs by AlamarBlue assay; type: cell-based
[2] = Cytotoxicity against human THLE-3 cells assessed as reduction in cell viability measured after 48 hrs by AlamarBlue assay; type: cell-based; conditions: for CC50 at 48 h: THLE-3 cells; for CC50: thle-3, 48 h
[3] = (§1) Cytotoxicity against human HEK293 cells assessed as reduction in cell viability measured after 48 hrs by AlamarBlue assay; type: cell-based; conditions: HEK293 cells
E. coli GroEL/ES [4] = biological target: T1, E. coli GroEL/ES (Escherichia coli, UniProt P0A6F5); test: Inhibition of Escherichia coli GroEL/ES-mediated refolding of the denatured rhodanese; type: protein-complex assay
T1 sequence (P0A6F5 whole entry, looked up): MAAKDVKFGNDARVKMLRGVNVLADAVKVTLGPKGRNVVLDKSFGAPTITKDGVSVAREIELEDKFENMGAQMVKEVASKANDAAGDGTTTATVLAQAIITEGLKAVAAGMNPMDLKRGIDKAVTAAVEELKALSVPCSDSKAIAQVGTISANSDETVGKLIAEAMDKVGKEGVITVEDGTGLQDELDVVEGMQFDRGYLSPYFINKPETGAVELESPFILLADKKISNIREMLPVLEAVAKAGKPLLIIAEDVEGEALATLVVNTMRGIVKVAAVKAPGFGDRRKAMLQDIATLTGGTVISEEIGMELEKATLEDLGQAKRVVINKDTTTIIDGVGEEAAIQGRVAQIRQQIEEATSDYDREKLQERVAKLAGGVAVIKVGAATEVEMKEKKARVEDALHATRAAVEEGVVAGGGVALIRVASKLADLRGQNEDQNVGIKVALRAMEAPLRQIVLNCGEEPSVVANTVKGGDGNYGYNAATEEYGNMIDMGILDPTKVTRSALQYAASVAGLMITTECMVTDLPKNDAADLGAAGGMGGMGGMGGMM

HSP60/HSP10 = HSP60/HSP10 (Homo sapiens, UniProt P10809); test: Inhibition of human mitochondrial HSP60/10-mediated refolding of the denatured malate dehydrogenase; type: mitochondria, Mitochondria
Sequence of HSP60/HSP10 (P10809 whole entry): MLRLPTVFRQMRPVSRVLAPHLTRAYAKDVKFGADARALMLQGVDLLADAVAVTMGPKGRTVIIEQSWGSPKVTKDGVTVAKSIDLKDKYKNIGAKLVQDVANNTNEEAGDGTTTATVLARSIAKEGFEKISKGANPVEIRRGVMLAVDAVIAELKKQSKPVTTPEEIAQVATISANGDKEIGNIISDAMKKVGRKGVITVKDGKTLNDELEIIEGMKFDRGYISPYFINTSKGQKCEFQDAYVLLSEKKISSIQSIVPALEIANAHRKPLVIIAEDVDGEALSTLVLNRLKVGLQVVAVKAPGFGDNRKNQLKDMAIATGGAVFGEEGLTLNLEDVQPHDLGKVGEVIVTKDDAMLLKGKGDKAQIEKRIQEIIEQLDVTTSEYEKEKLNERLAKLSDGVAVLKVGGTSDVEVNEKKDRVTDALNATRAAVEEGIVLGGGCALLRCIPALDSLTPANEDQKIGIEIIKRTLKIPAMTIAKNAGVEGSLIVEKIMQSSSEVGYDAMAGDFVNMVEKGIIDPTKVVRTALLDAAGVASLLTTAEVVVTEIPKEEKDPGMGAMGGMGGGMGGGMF
Sequence of HSP60/HSP10 (P61604 whole entry, further chain): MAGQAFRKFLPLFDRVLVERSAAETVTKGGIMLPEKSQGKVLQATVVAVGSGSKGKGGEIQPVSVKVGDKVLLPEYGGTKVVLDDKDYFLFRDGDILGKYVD

[5] = Inhibition of refolded MDH (unknown origin)-mediated oxidation of NADPH in presence of mesoxalic acid treated with compound after refolding of the denatured enzyme; design: species or system Homo sapiens
[6] = biological target: T2, Thiosulfate sulfurtransferase (Homo sapiens, UniProt Q16762); test: Inhibition of refolded Rhodanese (unknown origin)-mediated conversion of cyanide to thiocyanate treated with compound after refolding of the denatured enzyme
T2 sequence (Q16762 whole entry): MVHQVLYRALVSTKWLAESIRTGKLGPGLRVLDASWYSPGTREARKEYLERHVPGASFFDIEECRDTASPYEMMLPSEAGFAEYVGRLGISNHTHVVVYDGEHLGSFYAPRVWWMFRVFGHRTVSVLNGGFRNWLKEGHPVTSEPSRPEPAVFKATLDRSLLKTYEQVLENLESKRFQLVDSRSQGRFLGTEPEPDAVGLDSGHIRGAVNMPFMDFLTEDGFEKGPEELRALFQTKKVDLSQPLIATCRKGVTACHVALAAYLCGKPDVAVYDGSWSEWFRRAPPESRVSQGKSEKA

E. coli GroEL/ES [7] = biological target: T1, E. coli GroEL/ES; test: Inhibition of Escherichia coli GroEL/ES-mediated refolding of the denatured malate dehydrogenase; type: protein-complex assay
HEK293 = test: as §1; type: cell-based; conditions: hek293, 48 h

Compound	pEC50 (HCT-116)	pEC50 (DLD-1)	pEC50 (HT-29)	CC50 (FHC) [µM]	CC50 [1] [µM]	CC50 at 48 h [2] [µM]	CC50 at 48 h [3] [µM]	pIC50 (E. coli GroEL/ES [4])	pIC50 (HSP60/HSP10)	pIC50 [5]	pIC50 [6]	pIC50 (E. coli GroEL/ES [7])	CC50 [2] [µM]	CC50 (HEK293) [µM]
Nc1ccc(S(=O)(=O)Nc2ccc(-c3nc4cc(NS(=O)(=O)c5ccc(N)cc5)ccc4o3)cc2)cc1	4.77	4.33	4.62	65	53	39	63	5.51	4.36	< 4.20	< 4.00	–	–	–
O=S(=O)(Nc1ccc(-c2nc3cc(NS(=O)(=O)c4cccc5ccccc45)ccc3o2)cc1)c1cccc2ccccc12	4.70	4.47	4.51	–	52	49	> 100	4.46	–	< 4.20	< 4.00	4.37	–	–
COc1ccc(S(=O)(=O)Nc2ccc3oc(-c4ccc(NC(=O)C5CCN(C(C)=O)CC5)cc4)nc3c2)cc1	4.82	4.82	4.80	> 100	84	–	–	4.21	4.62	< 4.20	< 4.00	4.42	31	34
O=C(Nc1ccc(Sc2nc3ccccc3s2)cc1)c1cccc(Br)c1O	5.05	4.92	5.03	59	75	12	33	4.43	< 4.00	< 4.20	–	4.38	–	–
O=S(=O)(Nc1ccc(-c2nc3cc(NS(=O)(=O)c4ccc(C(F)(F)F)cc4)ccc3o2)cc1)c1ccc(C(F)(F)F)cc1	4.82	5.00	4.89	57	69	21	29	4.47	4.24	< 4.20	< 4.00	4.72	–	–
O=S(=O)(Nc1ccc(-c2nc3cc(NS(=O)(=O)c4ccc(F)cc4)ccc3o2)cc1)c1ccc(F)cc1	4.92	4.74	4.77	27	63	22	31	4.72	4.20	< 4.20	< 4.00	–	–	–
O=S(=O)(Nc1ccc(-c2nc3cc(NS(=O)(=O)c4cccc(C(F)(F)F)c4)ccc3o2)cc1)c1cccc(C(F)(F)F)c1	4.85	–	–	56	> 100	24	23	–	4.27	< 4.20	–	4.85	–	–
O=S(=O)(Nc1ccc(-c2nc3cc(NS(=O)(=O)c4ccc(Cl)s4)ccc3o2)cc1)c1ccc(Cl)c(C(F)(F)F)c1	4.77	–	4.68	63	56	21	34	5.08	5.17	< 4.20	–	5.55	–	–
COc1c(Br)cccc1C(=O)Nc1ccc(Sc2nc3ccccc3s2)cc1	4.51	4.40	4.52	–	–	> 100	> 100	–	–	< 4.20	–	–	–	–
O=S(=O)(Nc1ccc(-c2nc3cc(NS(=O)(=O)c4ccc(Cl)s4)ccc3o2)cc1)c1ccc(Cl)s1	4.82	4.48	4.48	43	65	48	41	–	5.19	4.24	–	5.55	–	–
COc1ccc(S(=O)(=O)Nc2ccc3oc(-c4ccc(NS(=O)(=O)c5cc(Br)ccc5OC)cc4)nc3c2)cc1	4.92	4.82	4.85	> 100	> 100	–	–	4.66	4.17	< 4.20	< 4.00	4.57	16	18
COc1ccccc1S(=O)(=O)Nc1ccc(-c2nc3cc(NS(=O)(=O)c4ccccc4OC)ccc3o2)cc1	5.04	5.18	4.80	74	81	48	28	4.48	4.06	< 4.20	< 4.00	4.37	–	–
O=C(Nc1ccc(Sc2nc3ccccc3s2)cc1)c1cc(Br)cc(Br)c1O	4.72	4.70	4.68	74	75	19	69	5.66	5.23	5.18	–	5.49	–	–
COc1ccc(S(=O)(=O)Nc2ccc3oc(-c4ccc(NS(=O)(=O)c5cc(F)ccc5OC)cc4)nc3c2)cc1	4.82	4.74	4.82	> 100	> 100	–	–	4.52	< 4.00	< 4.20	< 4.00	4.74	25	24
Cc1ccc(S(=O)(=O)Nc2ccc(-c3nc4ccc(NS(=O)(=O)c5ccc(C)cc5)cc4[nH]3)cc2)cc1	4.85	4.60	4.68	> 100	96	22	38	4.34	4.10	< 4.20	< 4.00	4.62	–	–
O=S(=O)(Nc1ccc(-c2nc3cc(NS(=O)(=O)c4ccc(Br)cc4)ccc3o2)cc1)c1ccc(Br)cc1	4.96	–	4.77	–	> 100	18	22	4.47	–	< 4.20	< 4.00	4.80	–	–
O=S(=O)(Nc1ccc(-c2nc3cc(NS(=O)(=O)c4ccccc4)ccc3o2)cc1)c1ccccc1	4.89	4.80	4.80	30	> 100	23	25	4.74	4.07	< 4.20	< 4.00	–	–	–
O=S(=O)(Nc1ccc(-c2nc3cc(NS(=O)(=O)c4ccccc4Cl)ccc3o2)cc1)c1ccccc1Cl	4.92	4.77	4.82	45	38	25	46	4.37	–	< 4.20	< 4.00	4.40	–	–
COc1ccc(S(=O)(=O)Nc2ccc(-c3nc4cc(NS(=O)(=O)c5ccc(OC)cc5)ccc4o3)cc2)cc1	4.92	4.55	4.40	57	40	60	48	4.25	–	< 4.20	< 4.00	4.52	–	–
